# Measured values published in patent US20260345619A1 (Principia Biopharma Inc., priority 2023, published 2026).
# Test: Asthma Quality of Life Questionnaire with Standardized Activities (AQLQ(S))
# Type: in vivo, human
# Source text: The AQLQ(S) is a self-administered patient reported outcome to measure the functional impairments that are most troublesome to adolescents and adults ≥12 years of age as a result of their asthma.
# Asthma Quality of Life Questionnaire with Standardized Activities (AQLQ(S)) self-administered (≥12 years)
# The AQLQ(S) was designed as a self-administered patient reported outcome to measure the functional impairments that are most troublesome to adolescents and adults ≥12 years of age as a result of their asthma. The instrument is comprised of 32 items, each rated on a 7-point Likert scales from 1 to 7. The AQLQ(S) has 4 domains. The domains and the number of items in each domain are as follows: • Symptoms (12 items) • Activity limitation (11 items) • Emotional function (5 items) • Environmental stimuli (4 items)
# A global score is calculated ranging from 1 to 7 and a score by domain. Higher scores indicate better quality of life. […] Patients were to complete the questionnaire in an electronic diary during on-site visits.
# Secondary endpoints included pre-bronchodilator FEV1 change from baseline at EOT, ACQ-5 score change from baseline, and AQLQ score change from baseline. Other secondary and exploratory endpoints are described in Table 2.
# [1] = 400 mg TID, observed/LOCF imputed, n=53, mITT
smiles,measurement,setting,value
"CC(C)(C=C(C#N)C(=O)N1CCC[C@@H](n2nc(-c3ccc(Oc4ccccc4)cc3F)c3c(N)ncnc32)C1)N1CCN(C2COC2)CC1 (mixture of isomers) [rilzabrutinib, (R)-2-[3-[4-amino-3-(2-fluoro-4-phenoxy-phenyl)pyrazolo[3,4-d]pyrimidin-1-yl]piperidine-1-carbonyl]-4-methyl-4-[4-(oxetan-3-yl)piperazin-1-yl]pent-2-enenitrile]","AQLQ global score change from baseline at Week 12, LS Mean Diff vs. placebo","400 mg TID, mITT, all others than low EOS and low FeNO",0.35
same,"AQLQ global score change from baseline at Week 12, LS Mean Diff vs. placebo","400 mg TID, mITT, atopic medical conditions: no",0.37
same,"AQLQ global score change from baseline at Week 12, LS Mean Diff vs. placebo","400 mg TID, mITT, atopic medical conditions: yes",0.13
same,"AQLQ global score change from baseline at Week 12, LS Mean Diff vs. placebo","400 mg TID, mITT, background ICS dose high",0.26
same,"AQLQ global score change from baseline at Week 12, LS Mean Diff vs. placebo","400 mg TID, mITT, background ICS dose medium",0.31
same,"AQLQ global score change from baseline at Week 12, LS Mean Diff vs. placebo","400 mg TID, mITT, baseline ACQ-5 score >2",0.38
same,"AQLQ global score change from baseline at Week 12, LS Mean Diff vs. placebo","400 mg TID, mITT, baseline ACQ-5 score ≤2",0.29
same,"AQLQ global score change from baseline at Week 12, LS Mean Diff vs. placebo","400 mg TID, mITT, baseline BMI <25 kg/m^2",0.56
same,"AQLQ global score change from baseline at Week 12, LS Mean Diff vs. placebo","400 mg TID, mITT, baseline BMI ≥25-<30 kg/m^2",0.47
same,"AQLQ global score change from baseline at Week 12, LS Mean Diff vs. placebo","400 mg TID, mITT, baseline BMI ≥30 kg/m^2",−0.01
same,"AQLQ global score change from baseline at Week 12, LS Mean Diff vs. placebo","400 mg TID, mITT, baseline FEV1 reversibility <12%",0.12
same,"AQLQ global score change from baseline at Week 12, LS Mean Diff vs. placebo","400 mg TID, mITT, baseline FEV1 reversibility ≥12%",0.32
same,"AQLQ global score change from baseline at Week 12, LS Mean Diff vs. placebo","400 mg TID, mITT, baseline FeNO <25 ppb",0.15
same,"AQLQ global score change from baseline at Week 12, LS Mean Diff vs. placebo","400 mg TID, mITT, baseline FeNO <35 ppb",0.18
same,"AQLQ global score change from baseline at Week 12, LS Mean Diff vs. placebo","400 mg TID, mITT, baseline FeNO ≥25 ppb",0.44
same,"AQLQ global score change from baseline at Week 12, LS Mean Diff vs. placebo","400 mg TID, mITT, baseline FeNO ≥35 ppb",0.45
same,"AQLQ global score change from baseline at Week 12, LS Mean Diff vs. placebo","400 mg TID, mITT, baseline IgA <median 2190 mg/L",0.50
same,"AQLQ global score change from baseline at Week 12, LS Mean Diff vs. placebo","400 mg TID, mITT, baseline IgA ≥median 2190 mg/L",0.08
same,"AQLQ global score change from baseline at Week 12, LS Mean Diff vs. placebo","400 mg TID, mITT, baseline IgE <100 IU/mL",0.46
same,"AQLQ global score change from baseline at Week 12, LS Mean Diff vs. placebo","400 mg TID, mITT, baseline IgE <median 121.85 IU/mL",0.60
same,"AQLQ global score change from baseline at Week 12, LS Mean Diff vs. placebo","400 mg TID, mITT, baseline IgE ≥100 IU/mL",0.16
same,"AQLQ global score change from baseline at Week 12, LS Mean Diff vs. placebo","400 mg TID, mITT, baseline IgE ≥median 121.85 IU/mL",−0.02
same,"AQLQ global score change from baseline at Week 12, LS Mean Diff vs. placebo","400 mg TID, mITT, baseline blood eosinophil level 1 <0.15 10^9/L",0.07
same,"AQLQ global score change from baseline at Week 12, LS Mean Diff vs. placebo","400 mg TID, mITT, baseline blood eosinophil level 1 ≥0.15-<0.3 10^9/L",0.32
same,"AQLQ global score change from baseline at Week 12, LS Mean Diff vs. placebo","400 mg TID, mITT, baseline blood eosinophil level 1 ≥0.3 10^9/L",0.70
same,"AQLQ global score change from baseline at Week 12, LS Mean Diff vs. placebo","400 mg TID, mITT, baseline blood eosinophil level 2 <0.3 10^9/L",0.17
same,"AQLQ global score change from baseline at Week 12, LS Mean Diff vs. placebo","400 mg TID, mITT, baseline blood eosinophil level 2 ≥0.3 10^9/L",0.70
same,"AQLQ global score change from baseline at Week 12, LS Mean Diff vs. placebo","400 mg TID, mITT, baseline percent predicted FEV1 <77%",0.42
same,"AQLQ global score change from baseline at Week 12, LS Mean Diff vs. placebo","400 mg TID, mITT, baseline percent predicted FEV1 <80%",0.35
same,"AQLQ global score change from baseline at Week 12, LS Mean Diff vs. placebo","400 mg TID, mITT, baseline percent predicted FEV1 ≥77%",0.16
same,"AQLQ global score change from baseline at Week 12, LS Mean Diff vs. placebo","400 mg TID, mITT, baseline percent predicted FEV1 ≥80%",0.27
same,"AQLQ global score change from baseline at Week 12, LS Mean Diff vs. placebo","400 mg TID, mITT, baseline pre-bronchodilator FEV1 <2.1955 L",0.28
same,"AQLQ global score change from baseline at Week 12, LS Mean Diff vs. placebo","400 mg TID, mITT, baseline pre-bronchodilator FEV1 ≥2.1955 L",0.27
same,"AQLQ global score change from baseline at Week 12, LS Mean Diff vs. placebo","400 mg TID, mITT, baseline weight <60 kg",−0.08
same,"AQLQ global score change from baseline at Week 12, LS Mean Diff vs. placebo","400 mg TID, mITT, baseline weight ≥60-<90 kg",0.41
same,"AQLQ global score change from baseline at Week 12, LS Mean Diff vs. placebo","400 mg TID, mITT, baseline weight ≥90 kg",0.17
same,"AQLQ global score change from baseline at Week 12, LS Mean Diff vs. placebo","400 mg TID, mITT, female",0.32
same,"AQLQ global score change from baseline at Week 12, LS Mean Diff vs. placebo","400 mg TID, mITT, former smokers",−0.02
same,"AQLQ global score change from baseline at Week 12, LS Mean Diff vs. placebo","400 mg TID, mITT, low EOS (<0.15) and low FeNO (<25)",0.10
same,"AQLQ global score change from baseline at Week 12, LS Mean Diff vs. placebo","400 mg TID, mITT, male",0.15
same,"AQLQ global score change from baseline at Week 12, LS Mean Diff vs. placebo","400 mg TID, mITT, never smokers",0.34
same,"AQLQ global score non-responders at Week 12, number",[1],24
same,"AQLQ global score non-responders at Week 12, percentage",[1],(45.3) (22/2)
same,participants with AQLQ improvement of at least 0.5 from baseline at Week 12,"400 mg TID, placebo 40.3%, p=0.0456",54.7%
same,"AQLQ(S) Activity limitation score, Mean","Week 4, 400 mg BID, mITT",5.48
same,"AQLQ(S) Activity limitation score, Median","Week 4, 400 mg BID, mITT",5.55
same,"AQLQ(S) Activity limitation score, change from baseline, LS Mean","Week 4, 400 mg BID, mITT",0.72
same,"AQLQ(S) Activity limitation score, change from baseline, Mean","Week 4, 400 mg BID, mITT",0.73
same,"AQLQ(S) Activity limitation score, change from baseline, Median","Week 4, 400 mg BID, mITT",0.55
same,"AQLQ(S) Emotional function score, Mean","Week 4, 400 mg BID, mITT",5.85
same,"AQLQ(S) Emotional function score, Median","Week 4, 400 mg BID, mITT",6.40
same,"AQLQ(S) Emotional function score, change from baseline, LS Mean","Week 4, 400 mg BID, mITT",0.77
same,"AQLQ(S) Emotional function score, change from baseline, Mean","Week 4, 400 mg BID, mITT",0.61
same,"AQLQ(S) Emotional function score, change from baseline, Median","Week 4, 400 mg BID, mITT",0.40
same,"AQLQ(S) Environmental stimuli score, Mean","Week 4, 400 mg BID, mITT",5.13
same,"AQLQ(S) Environmental stimuli score, change from baseline, LS Mean","Week 4, 400 mg BID, mITT",0.60
same,"AQLQ(S) Environmental stimuli score, change from baseline, Mean","Week 4, 400 mg BID, mITT",0.67
same,"AQLQ(S) Environmental stimuli score, change from baseline, Median","Week 4, 400 mg BID, mITT",0.50
same,"AQLQ(S) Global score, Mean","Week 4, 400 mg BID, mITT",5.63
same,"AQLQ(S) Global score, Median","Week 4, 400 mg BID, mITT",5.69
same,"AQLQ(S) Global score, change from baseline, LS Mean","Week 4, 400 mg BID, mITT",0.80
same,"AQLQ(S) Global score, change from baseline, Mean","Week 4, 400 mg BID, mITT",0.73
same,"AQLQ(S) Global score, change from baseline, Median","Week 4, 400 mg BID, mITT",0.69
same,"AQLQ(S) Symptoms score, Mean","Week 4, 400 mg BID, mITT",5.83
same,"AQLQ(S) Symptoms score, Median","Week 4, 400 mg BID, mITT",6.00
same,"AQLQ(S) Symptoms score, change from baseline, LS Mean","Week 4, 400 mg BID, mITT",0.92
same,"AQLQ(S) Symptoms score, change from baseline, Mean","Week 4, 400 mg BID, mITT",0.80
same,"AQLQ(S) Symptoms score, change from baseline, Median","Week 4, 400 mg BID, mITT",0.75
same,"AQLQ(S) Environmental stimuli score, change from baseline, LS Mean Diff vs. placebo","Week 4, 400 mg BID, mITT, 95% CI 0.02, 1.49",0.76
same,"AQLQ(S) Activity limitation score, change from baseline, LS Mean Diff vs. placebo","Week 4, 400 mg BID, mITT, 95% CI 0.26, 1.24",0.75
same,"AQLQ(S) Emotional function score, change from baseline, LS Mean Diff vs. placebo","Week 4, 400 mg BID, mITT, 95% CI 0.30, 1.74",1.02
same,"AQLQ(S) Global score, change from baseline, LS Mean Diff vs. placebo","Week 4, 400 mg BID, mITT, 95% CI 0.34, 1.34",0.84
same,"AQLQ(S) Symptoms score, change from baseline, LS Mean Diff vs. placebo","Week 4, 400 mg BID, mITT, 95% CI 0.41, 1.32",0.86
